According to US20230117205A1, “B7-H4 ANTIBODY-DRUG CONJUGATES FOR THE TREATMENT OF CANCER” (SEAGEN INC., priority 2021, published 2023):

Legend:
MDA-MB-231 = assay: In vitro cytotoxicity, 96-hour 3D spheroid, CellTiter-Glo; format: cell-based, human; details: MDA-MB-231 (non-B7-H4-expressing)
Experimental: (§1) The cytotoxicity was evaluated when cells were grown in 3D spheroid (round bottom, ultra-low attachment plates) conditions.
(§2) Cancer cell lines expressing B7-H4 (SKBR3, MX-1, and MDA-MB-468) as well as a non-B7-H4-expressing cell line (MDA-MB-231) were thawed from cryovials stored at […] into complete growth media and allowed to grow and recover from thaw at 37° C. and 5% CO2 until cell viability determined by Vi-CELL XR (Beckman Coulter, Indianapolis, Ind.) were above 90%. Cells were then counted and plated at 2000, 2200, 2200, and 2200 cells/well respectively. Cells were plated in 150 μL complete growth media in round bottom, black walled, ultra-low attachment, 96-well plates (Corning 4520). Cell plates were placed at 37° C. and 5% CO2 overnight to allow cells to adhere. ADCs were thawed and 4×8-point serial dilutions were prepared (final dose range 1000-0.061 ng/mL) in RPMI 1640+20% FBS. Fifty μL of each dilution were then added to each cell plate in triplicate. Cells were then left to incubate at 37° C. and 5% CO2 for 96 hours. Cell plates were then removed from the incubator and allowed to cool to room temperature for 30 minutes. CellTiter-Glo® luminescent assay (Promega Corporation, Madison, Wis.) was prepared according to Promega's protocol. One hundred uL CellTiter-Glo® were added to assay plates using a Formulatrix Tempest liquid handler (Formulatrix, Inc.) and plates were heat sealed using an ALPS300 automated microplate heat sealer (Thermo Scientific) and protected from light for 30 minutes at room temperature. The luminescence of each plate was then determined using an EnVision Multilabel plate reader (Perkin Elmer, Waltham, Mass.). […] One hundred uL of lysed spheroid suspension was then transferred to a black walled, flat bottom 96 well plate and read on the EnVision Multilabel plate reader (Perkin Elmer, Waltham, Mass.). Raw data were then analyzed in Graphpad Prism (San Diego, Calif.) using a non-linear, 4-parameter curve fit model (Y=Bottom+[Top-Bottom]/[1+10^[[Log EC50-X]×HillSlope]]). […]

MDA-MB-468 = assay: as above; format: cell-based, human
Experimental: as §1, §2

SKBR3 = assay: as above; format: cell-based, human
Experimental: as §1, §2

TNBC PDX models = assay: TNBC patient-derived xenograft models; format: in vivo, mice; details: 3 mg/kg q7dx3; for % TGI: vs untreated
Experimental: Tumor size and body weight were measured twice weekly, and the study was terminated when tumors in the control group reached 1500 mm^3 or up to Day 28, whichever occurred first, or maximum up to Day 60.
Specifically, stock mice were bilaterally implanted with fragments from one of the Champions TumorGraft® models representing human triple negative breast cancer. After the tumors reached 1000-1500 mm^3, they were harvested, and the tumor fragments were implanted subcutaneously (s.c.) in the left flank of the female study mice. Each animal was implanted with a specific passage lot and documented. Tumor growth was monitored twice a week using digital calipers, and the tumor volume (TV) was calculated using the formula (0.52×[length×width^2]). When the TV reached approximately 150-300 mm^3, animals were matched by tumor size and assigned into control (untreated) or treatment groups (n=1-3 animals/group). Each animal in the treatment groups was dosed with 10 mg/kg hIVIG (Grifolds), followed by 3 mg/kg of ADC every seven days for three total doses (q7dx3). Tumor size and body weight were measured twice weekly, and the study was terminated when tumors in the control group reached 1500 mm^3 or up to Day 28, whichever occurred first, or maximum up to Day 60.
Inhibition of tumor growth was determined by calculating the percent TGI on the day at which animals in the control group were terminated (100%×[1−(final MTV−initial MTV of a treated group)/(final MTV−initial MTV of the control group)]). Treatment started on Day 0.

[1] = system: MDA-MB-468 tumor and PBMC co-cultures; assay: Tumor/PBMC co-culture assay; format: cell-based, human; details: tumor/immune cell co-cultures
Experimental: Tumor cells were transfected with Incucyte® Cytolight red lentivirus per manufacturer's instructions and stable polyclonal cell populations expressing mKate2 (red fluorescent protein, RFP) were generated under puromycin selection. Live-cell killing assays were performed by seeding RFP+ MDA-MB-468 tumor cells in 96-well flat bottom plates (Corning #3603) at a variety of densities (3,750-10,000 cells/well) and grown overnight. The following day, PBMCs isolated from healthy donors were added at 15:1 or 25:1 effector to target (E:T) ratios and cultures were treated with the indicated small molecule drugs or ADCs. To evaluate immune cell activation, supernatants were harvested between 120 and 144 hours post treatment and MIP-1β production was evaluated by Milliplex MAP Human cytokine/chemokine/growth factor panel A (12-plex) Immunology Multiple Assay (Millipore Sigma #HCYTA-60K-12C). […] Following the final wash, cell pellets were resuspended in 200 μL staining buffer and analyzed on an NXT Attune flow cytometer (ThermoFisher). Flow cytometry data were analyzed using FlowJo software and monocyte activation was quantified by measuring the MFI of CD86 staining on CD14+ monocytes within the RFP−/live/CD19−/CD3−/CD14+ gate.

Substance: SGN-B7H4V: ADC of fully human IgG1 anti-B7-H4 mAb conjugated to monomethyl auristatin E (MMAE) via a protease-cleavable valine-citrulline linker (vedotin)
- ×50 (MDA-MB-231): >1000 ng/mL
- ×50 (MDA-MB-468): 105 ng/mL
- ×50 (SKBR3): 4 ng/mL
- PDX models with tumor regression or tumor growth delay (e.g. TGI>50%) (TNBC PDX models; TNBC): 9/11
- % TGI (TNBC PDX models; TNBC_1, Day 13): 111%
- % TGI (TNBC PDX models; TNBC_2, Day 7): 86%
- % TGI (TNBC PDX models; TNBC_3, Day 20): 71%
- % TGI (TNBC PDX models; TNBC_4, Day 20): 55%
- % TGI (TNBC PDX models; TNBC_5, Day 9): 106%
- % TGI (TNBC PDX models; TNBC_6, Day 20): 62%
- % TGI (TNBC PDX models; TNBC_7, Day 20): 25%
- % TGI (TNBC PDX models; TNBC_8, Day 17): 67%
- % TGI (TNBC PDX models; TNBC_9, Day 22): 26%
- % TGI (TNBC PDX models; TNBC_10, Day 27): 100%
- % TGI (TNBC PDX models; TNBC_11, Day 52): 109%
- CD86 on CD14+ monocytes [1]: upregulation of the costimulatory molecule CD86
- release of MIP-1β/CCL4 [1]: led to the release of the chemoattractant MIP-1β/CCL4
